In patent US20260285853A1, “COMPOUNDS AND METHODS FOR MODULATING SPLICING” (REMIX THERAPEUTICS INC., priority 2023, published 2026):
Where two headings read alike, the source gives them in different places.

Columns and labels:
Format in all cases: cell-based
[1] = test system: HTT mRNA; test: Splicing RT-qPCR assay (THP), Table 2A
[2] = test system: MYB mRNA; test: Splicing RT-qPCR assay (THP), Table 2A
[3] = test system: HTT mRNA; test: Gene panel canonical junction qPCR assay, decrease in CJ mRNA, Table 3
Summary of the method: (§1)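 Canonical exon-junction (CJ) transcript measured by 5′ nuclease RT-qPCR, normalized to GAPDH, GUSB or PPIA and to DMSO control (2^(−ΔΔCt)). A673 or K562 cells treated 24 h at 37° C with an 11-point 3-fold dilution series, top 10 uM, DMSO ≤0.25%. IC50 from 4-parameter logistic fit of percentage CJ decrease.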

[4] = test system: MYB mRNA; test: as above
Summary of the method: as §1

[5] = test system: SH-SY5Y (human neuroblastoma) cells; test: Cell viability, Cell Titer Glo 2.0 assay; details: read-out: Viability SHSY5Y.3 GI50
Summary of the method: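 SH-SY5Y cells were exposed to serially diluted compounds in IMDM with 10% FBS and 0.1% DMSO for 72 hours at 37° C., 5% CO2. Viability was measured by CellTiter-Glo 2.0 luminescence, with medium-only wells as blank.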

[6] = Table 2A, THP, HTT alternative junction (AJ) mRNA, read-out: HTT AJ (AC50, increase in alternative junction mRNA)
[7] = Table 2A, THP, HTT canonical junction (CJ) mRNA, read-out: HTT CJ (IC50, decrease in canonical junction mRNA)
[8] = Table 2A, THP, MYB alternative junction (AJ) mRNA, read-out: MYB AJ (AC50, increase in alternative junction mRNA)
[9] = Table 2A, THP, MYB canonical junction (CJ) mRNA, read-out: MYB CJ (IC50, decrease in canonical junction mRNA)
[10] = decrease in CJ mRNA levels, canonical junction qPCR, gene panel
[11] = Table 2A (THP), AJ mRNA increase, read-out: HTT AJ (increase in alternative junction mRNA, AC50)
[12] = Table 2A (THP), CJ mRNA decrease, read-out: HTT CJ (decrease in canonical junction mRNA, IC50)
[13] = Table 2A (THP), AJ mRNA increase, read-out: MYB AJ (increase in alternative junction mRNA, AC50)
[14] = Table 2A (THP), CJ mRNA decrease, read-out: MYB CJ (decrease in canonical junction mRNA, IC50)
[15] = decrease in canonical junction (CJ) mRNA, gene panel qPCR, Table 3

Row | IC50 [1, 7] | IC50 [2, 9] | IC50 [3, 10] | IC50 [4, 10] | GI50 [5] | IC50 [1, 12] | IC50 [2, 14] | IC50 [3, 15] | IC50 [4, 15] | Structure (SMILES) | AC50 [1, 6] | AC50 [2, 8] | AC50 [1, 11] | AC50 [2, 13]
1 | 1000 to 10000 nM | 1000 to 10000 nM | 1000 to 10000 nM | 1000 to 10000 nM | 1000 to 10000 nM |  |  |  |  | COc1nc(NC(=O)c2c(F)cc(N3CCC(NC4CC4)CC3)c3nc(C)sc23)cn2cc(C)nc12 [Compound 664, 4-[4-(cyclopropylamino)-1-piperidyl]-6-fluoro-N-(8-methoxy-2-methylimidazo-[1,2-a]pyrazin-6-yl)-2-methyl-1,3-benzothiazole-7-carboxamide] | 1000 to 10000 nM | 1000 to 10000 nM |  | 
2 |  |  |  |  | 100 to 1000 nM | 100 to 1000 nM | 100 to 1000 nM | 100 to 1000 nM | 100 to 1000 nM | Cc1cn2cc(NC(=O)c3ccc(N4CCC(N5CCNCC5)C4)c4cn(C)nc34)nc2c(C)n1 (centres unmarked) [Compound 528] |  |  | 100 to 1000 nM | 100 to 1000 nM
3 | > 10000 nM | > 10000 nM | > 10000 nM | > 10000 nM | > 10000 nM |  |  |  |  | CCNC1CCN(c2ccc(C(=O)Nc3cc(CS(=O)(=O)N(C)C)c4nn(C)cc4c3)c3nn(C)cc23)CC1 [Compound 874] | > 10000 nM | > 10000 nM |  | 
4 |  |  |  |  | > 10000 nM | 1000 to 10000 nM | 100 to 1000 nM | 1000 to 10000 nM | 100 to 1000 nM | Cc1cn2cc(NC(=O)c3c(F)cc(N4CCC(NC5CC5)CC4)c4cn(C)nc34)cc(Oc3cccnn3)c2n1 [Compound 409] |  |  | > 10000 nM | 1000 to 10000 nM
5 | > 10000 nM | > 10000 nM | > 10000 nM | > 10000 nM | 1000 to 10000 nM |  |  |  |  | Cc1cn2cc(NC(=O)c3ccc(N4CCCCC4)c4cn(C)nc34)nc2c(CNS(C)(=O)=O)n1 [Compound 845] | > 10000 nM | > 10000 nM |  | 
6 | > 10000 nM | 1000 to 10000 nM | > 10000 nM | 1000 to 10000 nM | 1000 to 10000 nM |  |  |  |  | COc1nc2c(C(=O)Nc3cn4ccnc4c(F)c3OC)ccc(N3C[C@H](C)N[C@@H](C)C3)c2s1 [Compound 799] | > 10000 nM | 1000 to 10000 nM |  | 
7 | > 10000 nM | > 10000 nM | > 10000 nM | > 10000 nM | > 10000 nM |  |  |  |  | COc1cc2nn(C)cc2cc1NC(=O)c1c(Cl)cc(N2CCC(NC3CC3)CC2)n2cc(C)nc12 [Compound 627, 7-chloro-5-(4-(cyclopropylamino)piperidin-1-yl)-N-(6-methoxy-2-methyl-2H-indazol-5-yl)-2-methylimidazo[1,2-a]pyridine-8-carboxamide 2,2,2-trifluoroacetate] | > 10000 nM | > 10000 nM |  | 
8 | 1000 to 10000 nM | < 100 nM | 1000 to 10000 nM | < 100 nM | 100 to 1000 nM |  |  |  |  | COc1nc2c(C(=O)Nc3cc(C)c4nc(C)cn4n3)ccc(N3C[C@H](C)N[C@@H](C)C3)c2s1 [Compound 739, N-(2,8-dimethylimidazo[1,2-b]pyridazin-6-yl)-7-[(3S,5S)-3,5-dimethylpiperazin-1-yl]-2-methoxy-1,3-benzothiazole-4-carboxamide] | 100 to 1000 nM | < 100 nM |  | 

More lines, now with the values behind:

Row | Structure (SMILES) | IC50 [1, 7] | IC50 [2, 9] | IC50 [3, 10] | IC50 [4, 10] | GI50 [5] | IC50 [1, 12] | IC50 [2, 14] | IC50 [3, 15] | IC50 [4, 15] | AC50 [1, 6] | AC50 [2, 8] | AC50 [1, 11] | AC50 [2, 13]
9 | COc1nc2c(C(=O)Nc3cc4cn(C)nc4c(C)c3O)ccc(N3C[C@H](C)N[C@@H](C)C3)c2s1 [Compound 726, 7-[(3S,5S)-3,5-dimethylpiperazin-1-yl]-N-(6-hydroxy-2,7-dimethyl-indazol-5-yl)-2-methoxy-1,3-benzothiazole-4-carboxamide] | > 10000 nM | 1000 to 10000 nM | > 10000 nM | 1000 to 10000 nM | 1000 to 10000 nM |  |  |  |  | > 10000 nM | 100 to 1000 nM |  | 
10 | CCNC1CCN(c2ccc(C(=O)Nc3cc(C(=O)NC)c4nc(C)cn4c3)c3nn(C)cc23)CC1 [Compound 319, 4-(4-(ethylamino)-piperidin-1-yl)-2-methyl-N-(2-methyl-8-(methylcarbamoyl)-imidazo[1,2-a]-pyridin-6-yl)-2H-indazole-7-carboxamide 2,2,2-trifluoroacetate] |  |  |  |  | > 10000 nM | > 10000 nM | > 10000 nM | > 10000 nM | > 10000 nM |  |  | > 10000 nM | > 10000 nM
11 | Cc1cn2cc(NC(=O)c3ccc(N4CCC(NC5CC5)CC4)c4cn(C)nc34)cc2c(CNS(C)(=O)=O)n1 [Compound 570, 4-[4-(cyclopropyl-amino)-1-piperidyl]-N-[1-(methanesulfonamidometh-yl)-3-methyl-pyrrolo[1,2-a]-pyrazin-7-yl]-2-methyl-indazole-7-carboxamide] |  |  |  |  | > 10000 nM | > 10000 nM | > 10000 nM | > 10000 nM | > 10000 nM |  |  | > 10000 nM | > 10000 nM
12 | Cc1cn2cc(NC(=O)c3ccc(N4CC5(CNC5)C4)c4cn(C)nc34)nc2c(C)n1 [Compound 496] |  |  |  |  | > 10000 nM | > 10000 nM | 1000 to 10000 nM | > 10000 nM | 1000 to 10000 nM |  |  | > 10000 nM | 100 to 1000 nM
13 | CCNC1CCN(c2ccc(C(=O)Nc3cn4cc(C)nc(C5CC5)c4n3)c3nn(C)cc23)CC1 [Compound 312, N-(8-cyclopropyl-6-methyl-imidazo[1,2-a]pyrazin-2-yl)-4-[4-(ethylamino)-1-piperidyl]-2-methyl-indazole-7-carboxamide] |  |  |  |  | 1000 to 10000 nM | 1000 to 10000 nM | 1000 to 10000 nM | 1000 to 10000 nM | 1000 to 10000 nM |  |  | 1000 to 10000 nM | 1000 to 10000 nM
14 | COc1cc2nn(C)cc2cc1NC(=O)c1ccc(N2CCC(NC3CC3)CC2)n2cc(C)nc12 [Compound 618, 5-[4-(cyclopropylamino)-1-piperidyl]-N-(6-methoxy-2-methyl-indazol-5-yl)-2-methyl-imidazo[1,2-a]-pyridine-8-carboxamide] | 1000 to 10000 nM | 100 to 1000 nM | 1000 to 10000 nM | 100 to 1000 nM | 1000 to 10000 nM |  |  |  |  | 1000 to 10000 nM | < 100 nM |  | 
15 | Cc1cn2cc(NC(=O)c3c(F)cc(N4CCC(NC5CC5)CC4)c4cn(C)nc34)nc2c(CNS(C)(=O)=O)n1 [Compound 393, 4-(4-(cyclopropylamino)piperidin-1-yl)-6-fluoro-2-methyl-N-(6-methyl-8-(methylsulfonamidomethyl)imidazo[1,2-a]pyrazin-2-yl)-2H-indazole-7-carboxamide 2,2,2-trifluoroacetate] |  |  |  |  | 1000 to 10000 nM | > 10000 nM | 100 to 1000 nM | > 10000 nM | 100 to 1000 nM |  |  | > 10000 nM | 100 to 1000 nM
16 | COc1nc2c(C(=O)Nc3cc(F)c4nc(CO)cn4c3)ccc(N3C[C@H](C)N[C@@H](C)C3)c2s1 [Compound 810] | 1000 to 10000 nM | < 100 nM | 1000 to 10000 nM | < 100 nM | < 100 nM |  |  |  |  | 100 to 1000 nM | < 100 nM |  | 
17 | COc1nc2c(C(=O)Nc3cc(F)c4nc(C)cn4c3)ccc(N3CCC(NC4CC4)CC3)c2o1 [Compound 690, 7-[4-(cyclopropylamino)-1-piperidyl]-N-(8-fluoro-2-methyl-imidazo[1,2-a]pyridin-6-yl)-2-methoxy-1,3-benzoxazole-4-carboxamide] | < 100 nM | < 100 nM | < 100 nM | < 100 nM | 100 to 1000 nM |  |  |  |  | 100 to 1000 nM | < 100 nM |  | 
